The source of these data is PMC5395182, “Soaking suggests “alternative facts”: Only co-crystallization discloses major ligand-induced interface rearrangements of a homodimeric tRNA-binding protein indicating a novel mode-of-inhibition” (PLoS ONE, 2017).

“Also recorded” adds a separate entry of the source. Like-named read-outs stand apart in the source and are kept apart here.

The target of data set [1] is T1, Z. mobilis TGT (Zymomonas mobilis subsp. mobilis, UniProt P28720).
T1 construct: Strep-tag II (N, cleaved yes); made in house; host or cells: Escherichia coli
The data set is described as follows: TGT-catalyzed incorporation of radio-labeled guanine into tRNA (inhibition constants). It is filed as biochemical. As to the method:
The inhibition constants (Ki) of ligands 1 to 9, which are listed in Fig 2, were determined previously (except that of 4, which was determined in this study)[19, 20, 23, 26] via a well-established assay monitoring the TGT-catalyzed incorporation of radio-labeled guanine into tRNA. […] This substituent addresses the ribose-33/uracil-33 pocket by forming an H-bond to the main chain carbonyl of Ala232 (Fig 1 and S3 and S4 Figs).
The concentration of Z. mobilis TGT amounted to 9 nM, [8-^3H]-guanine was used at a (saturating) concentration of 10 μM and tRNA^Tyr at a concentration of 1.5 μM. Aliquots of 15 μL were withdrawn for scintillation counting every 60 minutes (in total four).
The Ki value was averaged over three measurements. The preparation of E.coli tRNA^Tyr (ECYC2) via in vitro transcription was carried out using the RiboMAX™ Large Scale RNA Production System-T7 (Promega) according to the vendor´s protocol.

Data set [2] concerns the target T1, Z. mobilis TGT. The conditions noted are these: cited from earlier work.
Data set [3] deals with T1, Z. mobilis TGT. Also noted: method as in PMID 24955548. Particulars: cited from earlier work.
Another data set has as its system T2, TGT homodimer.
T2 construct: Strep-tag II (N, cleaved yes); made in house; host or cells: Escherichia coli
The data set is described as follows: Native ESI-MS of TGT:ligand 1:10 mixtures (dimer destabilization). Also noted: species or system Zymomonas mobilis. The conditions noted are these: for Relative proportion of TGT monomers: 2.5 µM TGT and 25 µM inhibitor (1:10), 1 M NH4Ac pH 7.5, without ligand 3.3 ± 0.7 %; for effect on TGT dimer stability / monomer proportion, in words: compared to measurements in the absence of any ligand, TGT:ligand 1:10. The procedure: In order to gain insights into the dimer disturbing potential seen in the crystal structures with the different ligands and to collect evidence for such a behavior also present in solution, native ESI-MS was performed. This technique enables to monitor the oligomerization state of TGT at equilibrium under non-denaturing conditions, in the absence or presence of saturating ligand concentrations. […] To ensure reliability, these comparative experiments were thus carried out adhering to strictly similar conditions (see Materials and methods).
Relative proportions of TGT-monomer signals extracted from individual 1:10 TGT:ligand mixtures (TGT monomer 2.5 μM) were quantified (S7 Fig, S1 Table) and normalized with respect to this value in the absence of any inhibitor.
Nano-ESI-MS analyses were performed as already described in the literature. Briefly, WT-TGT samples were exchanged twice against a 1 M ammonium acetate pH 7.5 buffer using microcentrifuge gel-filtration columns (Zeba 0.5 mL, Thermo Scientific). Next, protein concentration was determined spectrophotometrically at 280 nm (Nano-Drop 2000 spectrophotometer, Thermo Scientific).
Native MS experiments were carried out on a hybrid Q-TOF mass spectrometer (Synapt G2 HDMS, Waters) equipped with an automated chip-based nanoESI source (Triversa Nanomate, Advion Biosciences) operating in the positive ion mode. External calibrations were generated from the multiple charged ions produced by a 2 μM horse heart myoglobin solution diluted in a 1:1 (v/v) water: acetonitrile mixture acidified with 1% (v/v) formic acid (denaturing MS) and singly charged cesium iodide clusters diluted to 2 g∙L^-1 in a 1:1 (v/v) water: isopropanol solution (native MS).
Titration experiments in native conditions (1 M NH4Ac pH 7.5) were next triggered by mixing 2.5 μM TGT monomers with 25 μM of each ligand separately (ratio 1:10). The final DMSO concentration of each mixture never exceeded 0.25% (v/v). Non-covalent TGT dimers and TGT-ligand complexes were preserved in the gas phase according fine-tuned instrumental parameters, improving ion desolvation and transmission while maintaining intact structures (Vc = 80V, Pi = 6 mbar).
Relative quantification of TGT monomers was performed from charge states peak intensities of both monomeric (10 to 14+) and dimeric complexes (15 to 20+), using MassLynx 4.1 (Waters). TGT dimer disruption was determined for each ligand through their destabilization factor (Fig 8) which corresponds to their associated ratio of TGT monomers normalized from the apo-condition (S7 Fig; S1 Table). Standard deviations are calculated here from analytical triplicates. For the sake of reliability and comparability, all these experiments were performed within the same day, from identical experimental and instrumental conditions using the same buffer exchanged TGT batch (frozen and thawed only once).

A short description of data set [4]: Ligand dilution in native MS buffer (precipitation). It counts as physicochemical. The conditions noted are these: 1 M NH4Ac pH 7.5.
Setting [5] is: ionization corrected, data for 1 determined previously.

T1 sequence (P28720 whole entry): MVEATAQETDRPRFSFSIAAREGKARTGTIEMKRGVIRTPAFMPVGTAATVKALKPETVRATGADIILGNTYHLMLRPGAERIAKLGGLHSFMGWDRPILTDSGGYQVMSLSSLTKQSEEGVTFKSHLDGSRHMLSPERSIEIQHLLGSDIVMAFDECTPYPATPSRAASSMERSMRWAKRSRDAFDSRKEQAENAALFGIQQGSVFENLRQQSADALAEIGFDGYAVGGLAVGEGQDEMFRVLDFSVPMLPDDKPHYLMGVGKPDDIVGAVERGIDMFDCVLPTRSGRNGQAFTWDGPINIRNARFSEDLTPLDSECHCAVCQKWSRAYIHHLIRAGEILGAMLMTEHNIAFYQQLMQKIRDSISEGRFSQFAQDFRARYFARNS

The term Ki denotes a dissociation constant, usually derived from enzyme kinetics or from competition with a known ligand. Usually Kd stands for the free concentration of one partner at which half of the binding sites on the other are occupied at equilibrium, for simple one-to-one binding. Consider `CNc1nc2cc3nc(N)[nH]c(=O)c3cc2[nH]1` [Inhibitor 1], for which the “factor by which 1 is more potent than 3” value at Z. mobilis TGT [1] (radio-labeled assay, Ki ratio 1 vs 3) was 6. The “increase of affinity compared to the unsubstituted lin-benzoguanine (factor)” value at Z. mobilis TGT [2] (Ki ratio) was 70. Moreover, at Z. mobilis TGT [2], the Ki was 58 ± 36 nM. On Z. mobilis TGT [3] (HEPES buffer), the “-TΔS^0” value was 34.2 ± 1.9^29 kJ∙mol^-1 and the “ΔH^0obs” value is -74.8 ± 1.8^29 kJ∙mol^-1. The dissociation constant Kd on Z. mobilis TGT [3] (ITC, 298 K) was 52 ± 7 nM. Besides, the “ΔG^0” value at Z. mobilis TGT [3] (ITC) is -41.6 ± 0.3^29 kJ∙mol^-1. At Z. mobilis TGT [3] (TRIS buffer), the “-TΔS^0” value is recorded as 9.3 ± 0.9^29 kJ∙mol^-1 and the “ΔH^0obs” value was -50.9 ± 0.9^29 kJ∙mol^-1. On Z. mobilis TGT [3] (Tricin buffer), the “-TΔS^0” value is on record as 25.1 ± 0.3^29 kJ∙mol^-1 and the “ΔH^0obs” value is -66.7 ± 0.1^29 kJ∙mol^-1. Moreover, on Z. mobilis TGT [3] (setting [5]), the “-TΔS^0” value is 52.0 kJ/mol and the “ΔH^0bind” value is -93.6 kJ/mol. Moreover, the “protons picked up during binding” value at Z. mobilis TGT [3] (slope of linear regression) is listed as 0.89 protons per mole of the formed complex. In the data set with TGT homodimer, the “Relative proportion of TGT monomers” value is recorded as 3.4% and the “effect on TGT dimer stability / monomer proportion, in words” value is “No effect on dimer stability”.
Turning to `CNc1nc2c(CCNCC3CCC(C#Cc4cccnc4)CC3)c3nc(N)[nH]c(=O)c3cc2[nH]1` (centres unmarked) [Inhibitor 4], the “precipitation upon ligand dilution in buffer” value in data set [4] was “partial precipitation; also recorded: To a lower extent, a similar phenomenon was also observed”. Moreover, on Z. mobilis TGT [1] (determined in this study, competitive with respect to tRNA substrate, averaged over three measurements), the affinity, expressed as Ki, was 193 ± 41 nM. In addition, in the data set on TGT homodimer, the “Relative proportion of TGT monomers” value is given as 5.6% and the “effect on TGT dimer stability / monomer proportion, in words” value is “small effect might be given”.
